Assay results from patent publication US8741963B2, “S1P receptor modulators for treating multiple sclerosis” (Novartis AG, priority 2006, dated 2014).

Test system: Relapsing Experimental Autoimmune Encephalomyelitis (EAE)
Test: Relapsing Experimental Autoimmune Encephalomyelitis (EAE), vascular casts quantitated by micro computer tomography
Type: in vivo, female Lewis rats
Conditions: rat relapsing EAE
Excerpt: In Vivo: Relapsing Experimental Autoimmune Encephalomyelitis (EAE)
Disease is induced in female Lewis rats by immunization with guinea pig spinal cord tissue emulsified in complete Freund's adjuvant. […] On day 26 rats are thoracectomized after having been deeply anesthetized with Isoflurane (3%, 20 L/min) and perfused through the left ventricle of the heart. The left ventricle is punctured with a 19 gauge needle from a winged infusion set (SV-19BLK; Termudo, Elkton, Md.), which is connected to an airtight pressurized syringe containing the rinsing solution (NaCl 0.9% with 250,000 U/I heparin at 35° C.). The right atrium is punctured to provide outflow, and the perfusate is infused under a precise controlled pressure of 120 mm Hg. The perfusion is continued for 5 min (at a constant rate of 20 ml/min) followed by a pre-fixation solution (2% performaldehyde in PBS at 35° C.). Finally, up to 30 ml of polyurethane resin (PUII4; Vasqtec, Zürich, Switzerland) is infused at the same rate. After 48 h, the resin-filled brain and spinal cord are excised from the animal and the soft tissue removed by maceration in 7.5% KOH during 24 hr at 50° C. The casts are then thoroughly cleaned with and stored in distilled water before drying by lyophilization. These vascular casts are quantitated using micro computer tomography.

[1] = hydrochloride salt form, daily 0.3 mg/kg p.o.

Compound: CCCCCCCCc1ccc(CCC(N)(CO)CO)cc1.Cl [Compound A, 2-amino-2-[2-(4-octylphenyl)ethyl]propane-1,3-diol]
- disease-associated neo-angiogenesis (dose of from 0.1 to 20 mg/kg p.o.): significantly blocks
- disease-associated angiogenesis [1]: fully blocks
- relapse phases [1]: completely inhibits
- effect on disease-associated angiogenesis and relapse phases, intermittent administration (hydrochloride salt form, p.o. 0.3 mg/kg every 2nd or 3rd day or once a week): The same effect is obtained
